How the values were obtained:
Format in all cases: biochemical
elastase = experiment: Activity of the elastase enzyme
Procedure: (§1) The anti-aging effect of the composition of the first aspect was determined by the methods that measure the activity of the elastase enzyme and the activity of the metalloproteases (MMP) enzyme.

MMP 12 = MMP 12 (Homo sapiens, UniProt P39900); experiment: Activity of the metalloproteases (MMP) enzyme
Procedure: as §1

MMP 1 = target: T1, MMP 1 (Homo sapiens, UniProt P03956); experiment: Activity of the metalloproteases (MMP) enzyme
T1 sequence (P03956 100-469): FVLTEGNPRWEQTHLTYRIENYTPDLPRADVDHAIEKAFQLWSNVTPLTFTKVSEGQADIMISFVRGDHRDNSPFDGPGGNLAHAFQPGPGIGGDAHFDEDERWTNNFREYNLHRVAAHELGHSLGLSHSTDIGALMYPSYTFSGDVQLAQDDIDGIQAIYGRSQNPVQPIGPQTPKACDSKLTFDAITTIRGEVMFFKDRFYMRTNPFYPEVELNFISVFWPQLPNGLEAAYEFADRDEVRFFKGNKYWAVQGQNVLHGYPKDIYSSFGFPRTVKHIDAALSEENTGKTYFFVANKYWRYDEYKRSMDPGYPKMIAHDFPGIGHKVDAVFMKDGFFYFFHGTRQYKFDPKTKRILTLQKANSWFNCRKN
Procedure: as §1

MMP 3 = MMP 3 (Homo sapiens, UniProt P08254); experiment: Activity of the metalloproteases (MMP) enzyme
Procedure: as §1

MMP 12, sequence (P39900 106-470): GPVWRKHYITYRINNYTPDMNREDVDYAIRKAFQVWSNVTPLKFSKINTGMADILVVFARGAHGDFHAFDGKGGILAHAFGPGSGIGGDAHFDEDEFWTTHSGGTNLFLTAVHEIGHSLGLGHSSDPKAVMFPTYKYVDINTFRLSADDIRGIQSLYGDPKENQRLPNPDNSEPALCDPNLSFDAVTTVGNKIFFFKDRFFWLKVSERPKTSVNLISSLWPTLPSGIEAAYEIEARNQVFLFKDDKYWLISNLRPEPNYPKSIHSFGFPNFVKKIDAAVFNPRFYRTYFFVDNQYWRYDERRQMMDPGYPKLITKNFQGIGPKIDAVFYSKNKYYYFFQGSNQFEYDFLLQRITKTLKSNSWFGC
MMP 3, sequence (P08254 100-477): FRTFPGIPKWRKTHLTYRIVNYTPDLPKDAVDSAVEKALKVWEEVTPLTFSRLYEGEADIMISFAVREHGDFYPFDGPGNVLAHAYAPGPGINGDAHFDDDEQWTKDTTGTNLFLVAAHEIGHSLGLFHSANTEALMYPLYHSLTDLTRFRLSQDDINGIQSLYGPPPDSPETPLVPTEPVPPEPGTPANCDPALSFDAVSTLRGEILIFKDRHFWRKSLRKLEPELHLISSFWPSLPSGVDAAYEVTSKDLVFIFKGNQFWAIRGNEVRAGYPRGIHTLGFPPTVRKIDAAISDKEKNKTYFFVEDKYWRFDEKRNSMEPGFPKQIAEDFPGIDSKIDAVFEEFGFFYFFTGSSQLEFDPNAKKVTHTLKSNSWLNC

Molecule	Inhibition of the activity of elastase (elastase)	Inhibition of the activity of MMP 12 (MMP 12)	Inhibition of the activity of MMP 1 (MMP 1)	Inhibition of the activity of MMP 3 (MMP 3)
O=C1O[C@H]([C@@H](O)CO)C(O)=C1O [Vitamin C]	do not present such result	do not present this result	do not present this result	do not present this result
Vitamin E	do not present such result	do not present this result	do not present this result	do not present this result
